# Results as given in US20060166900A1, “Salt of morphine-6-glucuronide” (CeNeS Limited, priority 2002, published 2006).
# Legend:
# Type in all cases: physicochemical
# [1] = Water content by Karl Fisher analysis on storage (Example 3)
# Protocol: Water content (% w/w) by Karl Fisher analysis
# (§1) Each test material was stored between 2-8*C prior to placing on stability. Each material was sub-divided into 900 mg aliquots, transferred to brown opaque HDPE plastic bottles and flushed with Argon prior to sealing. Sufficient samples were provided for each time point as well as spares for each storage condition. The samples were placed in appropriate incubators previously commissioned at storage conditions 25° C./60% RH, 40° C./75% RH and 60° C.
# Water Content by Karl Fisher Analysis
# Water content was determined in duplicate on an aliquot of equilibrated material (approximately 100 mg) using a Tritrino 720 KFS Titrator.
# [2] = Stability indicating HPLC assay and related substances on storage (Example 3)
# Protocol: Assay (% w/w) and related substances determination
# as §1
# Testing Procedures Test for Identity Content and Impurities
# Testing was performed in duplicate (2×25 mg) in accordance with a stability indicating HPLC assay method. The assay results were reported as M6G as is, M6G as the anhydrous, solvent free material and the anhydrous solvent free material corrected for the salt form using the relevant conversion factor.
# [3] = Visual appearance on storage (Example 3)
# Protocol: as §1
# The samples were stored for analysis according to the following table: […]
# [4] = Colour of solution by visible spectrophotometry on storage (Example 3); conditions: 5% w/v solution in water
# Protocol: Colour of solution by UV spectrophotometry.
# as §1
# Colour by Visible Spectrophotometry
# A 5% w/v solution of test material was prepared in water and the absorbance measured at 420 nm in a 1 cm silica cell using a Unicam UV4 Visible/UV spectrophotometer.
compound,measurement,setting,value
CN1CCC23c4c5ccc(O)c4OC2C(OC2OC(C(=O)O)C(O)C(O)C2O)C=CC3C1C5.CN1CCC23c4c5ccc(O)c4OC2C(OC2OC(C(=O)O)C(O)C(O)C2O)C=CC3C1C5.O=C(O)C=CC(=O)O (stereo not drawn) [Morphine-6-glucuronide fumarate],Moisture,"[1]; 1 month, 25° C./60% RH",7.26 % w/w
same,Moisture,"[1]; 1 month, 40° C./75% RH",7.94 % w/w
same,Moisture,"[1]; 1 month, 60° C.",5.98 % w/w
same,Moisture,"[1]; 3 months, 25° C./60% RH",8.00 % w/w
same,Moisture,"[1]; 3 months, 40° C./75% RH",10.89 % w/w
same,Moisture,[1]; Initial,6.80 % w/w
same,Known Related Substances HN33177,"[2]; 1 month, 25° C./60% RH",0.80%
same,Known Related Substances HN75083,"[2]; 1 month, 25° C./60% RH",0.03%
same,"M6G Assay, Anhydrous basis","[2]; 1 month, 25° C./60% RH",88.23 % w/w
same,"M6G Assay, As is basis","[2]; 1 month, 25° C./60% RH",81.96 % w/w
same,"M6G Assay, Corrected for the salt form","[2]; 1 month, 25° C./60% RH",99.32 % w/w
same,Total Known,"[2]; 1 month, 25° C./60% RH",0.83%
same,Total Related Substances,"[2]; 1 month, 25° C./60% RH",0.91%
same,Total Unknown,"[2]; 1 month, 25° C./60% RH",0.08%
same,Known Related Substances HN33177,"[2]; 1 month, 40° C./75% RH",0.70%
same,Known Related Substances HN67003,"[2]; 1 month, 40° C./75% RH",0.58%
same,Known Related Substances HN75076,"[2]; 1 month, 40° C./75% RH",0.03%
same,Known Related Substances HN75083,"[2]; 1 month, 40° C./75% RH",0.02%
same,Known Related Substances Morphine,"[2]; 1 month, 40° C./75% RH",0.10%
same,"M6G Assay, Anhydrous basis","[2]; 1 month, 40° C./75% RH",84.17 % w/w
same,"M6G Assay, As is basis","[2]; 1 month, 40° C./75% RH",77.62 % w/w
same,"M6G Assay, Corrected for the salt form","[2]; 1 month, 40° C./75% RH",94.76 % w/w
same,Total Known,"[2]; 1 month, 40° C./75% RH",1.43%
same,Total Related Substances,"[2]; 1 month, 40° C./75% RH",2.60%
same,Total Unknown,"[2]; 1 month, 40° C./75% RH",1.17%
same,Known Related Substances HN33177,"[2]; 1 month, 60° C.",0.62%
same,Known Related Substances HN67003,"[2]; 1 month, 60° C.",0.97%
same,Known Related Substances HN75076,"[2]; 1 month, 60° C.",0.06%
same,Known Related Substances HN75083,"[2]; 1 month, 60° C.",0.02%
same,Known Related Substances Morphine,"[2]; 1 month, 60° C.",0.24%
same,"M6G Assay, Anhydrous basis","[2]; 1 month, 60° C.",82.11 % w/w
same,"M6G Assay, As is basis","[2]; 1 month, 60° C.",77.33 % w/w
same,"M6G Assay, Corrected for the salt form","[2]; 1 month, 60° C.",92.44 % w/w
same,Total Known,"[2]; 1 month, 60° C.",1.91%
same,Total Related Substances,"[2]; 1 month, 60° C.",3.85%
same,Total Unknown,"[2]; 1 month, 60° C.",1.94%
same,Known Related Substances HN33177,"[2]; 3 months, 25° C./60% RH",0.75%
same,Known Related Substances HN67003,"[2]; 3 months, 25° C./60% RH",0.26%
same,Known Related Substances HN75083,"[2]; 3 months, 25° C./60% RH",0.10%
same,Known Related Substances Morphine,"[2]; 3 months, 25° C./60% RH",0.07%
same,"M6G Assay, Anhydrous basis","[2]; 3 months, 25° C./60% RH",87.15 % w/w
same,"M6G Assay, As is basis","[2]; 3 months, 25° C./60% RH",81.20 % w/w
same,"M6G Assay, Corrected for the salt form","[2]; 3 months, 25° C./60% RH",98.11 % w/w
same,Total Known,"[2]; 3 months, 25° C./60% RH",1.18%
same,Total Related Substances,"[2]; 3 months, 25° C./60% RH",1.90%
same,Total Unknown,"[2]; 3 months, 25° C./60% RH",0.72%
same,Known Related Substances HN33177,"[2]; 3 months, 40° C./75% RH",0.57%
same,Known Related Substances HN67003,"[2]; 3 months, 40° C./75% RH",1.56%
same,Known Related Substances HN75076,"[2]; 3 months, 40° C./75% RH",0.40%
same,Known Related Substances Morphine,"[2]; 3 months, 40° C./75% RH",0.45%
same,"M6G Assay, Anhydrous basis","[2]; 3 months, 40° C./75% RH",79.38 % w/w
same,"M6G Assay, As is basis","[2]; 3 months, 40° C./75% RH",71.64 % w/w
same,"M6G Assay, Corrected for the salt form","[2]; 3 months, 40° C./75% RH",89.37 % w/w
same,Total Known,"[2]; 3 months, 40° C./75% RH",2.98%
same,Total Related Substances,"[2]; 3 months, 40° C./75% RH",9.07%
same,Total Unknown,"[2]; 3 months, 40° C./75% RH",6.09%
same,drop in assay compared to the initial values,"[2]; 3 months, 40° C./75% RH",around 10%
same,Known Related Substances HN33177,[2]; Initial,0.77%
same,Known Related Substances HN67003,[2]; Initial,0.04%
same,Known Related Substances HN75083,[2]; Initial,0.05%
same,"M6G Assay, Anhydrous basis",[2]; Initial,89.44 % w/w
same,"M6G Assay, As is basis",[2]; Initial,84.11 % w/w
same,"M6G Assay, Corrected for the salt form",[2]; Initial,100.71 % w/w
same,Total Known,[2]; Initial,0.86%
same,Total Related Substances,[2]; Initial,0.95%
same,Total Unknown,[2]; Initial,0.09%
same,Appearance,"[3]; 1 month, 25° C./60% RH",White crystalline powder
same,Appearance,"[3]; 1 month, 40° C./75% RH",Pale yellow crystalline powder
same,Appearance,"[3]; 1 month, 60° C.",Yellow crystalline powder
same,Appearance,"[3]; 3 months, 25° C./60% RH",Pale yellow crystalline powder
same,Appearance,"[3]; 3 months, 40° C./75% RH",Yellow crystalline powder
same,Appearance,[3]; Initial,White crystalline powder
same,Colour,"[4]; 1 month, 25° C./60% RH",0.034 Abs@420 nm
same,Colour,"[4]; 1 month, 40° C./75% RH",0.264 Abs@420 nm
same,Colour,"[4]; 1 month, 60° C.",0.794 Abs@420 nm
same,Colour,"[4]; 3 months, 25° C./60% RH",0.141 Abs@420 nm
same,Colour,"[4]; 3 months, 40° C./75% RH",1.008 Abs@420 nm
same,Colour,[4]; Initial,0.016 Abs@420 nm
